The values that follow come from patent US11884667B1, “Substituted pyrrolo[2,3-c][2,7]naphthyridines as CK2 inhibitors” (KING FAISAL UNIVERSITY, priority 2023, dated 2024).

Molecules are shown by their SMILES.

For one assay, the system named is PC3 (prostate). The assay can be described thus: In vitro cytotoxic activity (MTT) assay, PC3. In kind it is cell-based. The note with it: Homo sapiens, 96 hours exposure, read-out: IC50, 50% inhibition of cell proliferation. The method, then: (§1) Compounds 1-15 were screened for their in vitro cytotoxic activity utilizing a 3-(4,5-dimethyl-thiazol-2-yl)-2,5-diphenyltetrazolium bromide (MTT) assay against selected cancer human cell lines consisting of PC3 (prostate), HCT116 (colon), A375 (melanoma), H1299 (lung), MIAPaCa-2 (pancreas), HL60 (leukemia), MCF7 (breast), MDA-MB-231 (breast) (T. Mosmann, J. Immunol. Meth., 1983, 65, 55-63). The cells were cultured at 37° C. in RMPI1640 medium supplemented with 10% fetal bovine serum, 50 IU/mL penicillin, and 50 μg/mL streptomycin in a 5% CO2 incubator. All cells were sub-cultured 3 times/week by trypsinization. Viable cells were seeded and allowed to adhere for 12 h before a test drug was added in 96-well plates at an initial density of 1.0×10^5 cells/mL. Tumour cell lines were separately exposed to various concentrations of the tested compounds followed by incubation at a temperature of 37° C. during 96 h inside a medium of fresh RMPI 1640. Cells were subsequently incubated at 37° C. using MTT at 0.5 mg/mL during 4 h. After removal of supernatant, formazan crystals were dissolved in isopropanol and the optical density was measured at 570 nm. CX-4945 was used as a positive control.

Assay [1] concerns the target T1, recombinant human CK2 (RRββ-holoenzyme) (Homo sapiens, UniProt P68400).
T1 construct: purchased Millipore
Kind of assay: CK2 kinase assay ([γ-33P]ATP, filter plate). In kind it is biochemical. The note with it: final ATP 15 μM, 10 min at 30° C.; read-out: protein kinase CK2 IC50. The method, then: CK2 Kinase Assay was conducted using the protocol as described in Pierre F. et al; J. Med. Chem. 2011, 54, 635-654. The tested compounds in aqueous solution were added at a volume of 10 μL to a reaction mixture comprising 10 μL of assay dilution buffer (ADB; 20 mM MOPS, pH 7.2, 25 mM β-glycerol phosphate, 5 mM EGTA, 1 mM sodium orthovanadate, and 1 mM dithiothreitol), 10 μL of substrate peptide (RRRDDDSDDD, dissolved in ADB at a concentration of 1 mM), 10 μL of recombinant human CK2 (RRββ-holoenzyme, 25 ng dissolved in ADB; Millipore). Reactions were initiated by the addition of 10 μL of ATP solution (90% 75 mMMgCl2, 75 μM ATP (final ATP concentration:15 μM) dissolved in ADB; 10% [γ-33P] ATP (stock 1mCi/100 μL; 3000 Ci/mmol (Perkin-Elmer) and maintained for 10 min at 30° C. The reactions were quenched with 100 μL of 0.75% phosphoric acid and then transferred to and filtered through a phosphor cellulose filter plate (Millipore). After washing each well five times with 0.75% phosphoric acid, the plate was dried under vacuum for 5 min and, following the addition of 15 μL of scintillation fluid to each well, the residual radioactivity was measured using a Wallac […]. The IC50 values were derived from eight concentrations of test inhibitors.

In another assay the test system is HCT116 (colon). The assay can be described thus: In vitro cytotoxic activity (MTT) assay, HCT116. It counts as cell-based. The note with it: Homo sapiens, HCT-116, 96 hours exposure, read-out: IC50, 50% inhibition of cell proliferation. The method, then:
as §1

In another assay the test system is MDA-MB-231 (breast). The assay can be described thus: In vitro cytotoxic activity (MTT) assay, MDA-MB-231. The note with it: Homo sapiens, 96 hours exposure, read-out: IC50, 50% inhibition of cell proliferation. It counts as cell-based. The method, then: as §1
For another assay, the system named is MCF7 (breast). The assay can be described thus: In vitro cytotoxic activity (MTT) assay, MCF7. In kind it is cell-based. The note with it: Homo sapiens, 96 hours exposure, read-out: IC50, 50% inhibition of cell proliferation. The method, then: as §1
The next assay relates to A375 (melanoma). Kind of assay: In vitro cytotoxic activity (MTT) assay, A375. It counts as cell-based. The note with it: Homo sapiens, A-375, 96 hours exposure, read-out: IC50, 50% inhibition of cell proliferation. The method, then: as §1
A further assay deals with HL60 (leukemia). The assay can be described thus: In vitro cytotoxic activity (MTT) assay, HL60. It counts as cell-based. The note with it: Homo sapiens, HL-60, 96 hours exposure, read-out: IC50, 50% inhibition of cell proliferation. The method, then:
as §1

For the next assay, the system named is H1299 (lung). The assay can be described thus: In vitro cytotoxic activity (MTT) assay, H1299. It counts as cell-based. The note with it: Homo sapiens, NCI-H1299, 96 hours exposure, read-out: IC50, 50% inhibition of cell proliferation. The method, then: as §1
For another assay, the system named is MIAPaCa-2 (pancreas). Kind of assay: In vitro cytotoxic activity (MTT) assay, MIAPaCa-2. It counts as cell-based. The note with it: Homo sapiens, MIA PaCa-2, 96 hours exposure, read-out: IC50, 50% inhibition of cell proliferation. The method, then: as §1

T1 sequence (P68400 whole entry): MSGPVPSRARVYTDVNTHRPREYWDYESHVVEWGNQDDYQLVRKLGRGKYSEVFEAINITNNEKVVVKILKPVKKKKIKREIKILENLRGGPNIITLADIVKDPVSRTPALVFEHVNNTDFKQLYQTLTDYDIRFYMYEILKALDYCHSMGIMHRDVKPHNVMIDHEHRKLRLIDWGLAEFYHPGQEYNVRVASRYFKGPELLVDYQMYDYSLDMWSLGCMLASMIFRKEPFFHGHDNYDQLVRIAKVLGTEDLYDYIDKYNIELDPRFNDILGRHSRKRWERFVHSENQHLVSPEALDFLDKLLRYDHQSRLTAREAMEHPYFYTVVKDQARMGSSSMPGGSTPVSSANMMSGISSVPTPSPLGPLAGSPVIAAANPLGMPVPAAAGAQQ
T1 sequence (P67870 whole entry partner): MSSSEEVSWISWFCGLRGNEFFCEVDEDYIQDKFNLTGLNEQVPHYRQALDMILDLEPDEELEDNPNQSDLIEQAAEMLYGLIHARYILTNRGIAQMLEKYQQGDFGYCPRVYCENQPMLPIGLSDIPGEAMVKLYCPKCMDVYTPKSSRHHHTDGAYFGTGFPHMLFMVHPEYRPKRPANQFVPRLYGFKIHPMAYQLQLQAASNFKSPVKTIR

For `O=C(O)c1cc2c(nc(Nc3cccc(Cl)c3)c3cnccc32)[nH]1` [Compound 1, 5-((3-chlorophenyl)amino)-3H-pyrrolo[2,3-c][2,7]naphthyridine-2-carboxylic acid], the IC50 in the assay with PC3 (prostate) came to 2600 nM; in assay [1] it was 16 nM; in the assay with HCT116 (colon) it was 900 nM; with MDA-MB-231 (breast) it was 4100 nM; in the assay on MCF7 (breast), 3300 nM; with A375 (melanoma) it was 2700 nM. For the same molecule, the IC50 amounted to 2400 nM with HL60 (leukemia), 1100 nM in the assay with H1299 (lung) and 800 nM with MIAPaCa-2 (pancreas).
